# Measurements from patent publication EP0090603A2, “Antibacterial compounds” (BEECHAM GROUP PLC, priority 1982, dated 1983).
# What was measured:
# Type in all cases: cell-based
# M. suipneumoniae HK(2) = experiment: MIC against Mycoplasma, in vitro agar dilution; details: Friis broth solidified with 0.9% agarose, 10^3 to 10^5 C.F.U., 6 days at 37°C; for MIC: Mesomycoplasma hyopneumoniae, 144 h, read-out: MIC's against M. suipneumoniae HK(2)
# M. suipneumoniae NB12 = experiment: MIC against Mycoplasma, in vitro agar dilution; details: Friis broth solidified with 0.9% agarose, 10^3 to 10^5 C.F.U., 6 days at 37°C; for MIC: Mesomycoplasma hyopneumoniae, NB12, 144 h, read-out: MIC's against M. suipneumoniae NB12
# M. hyorhinis ATCC 23234 = experiment: MIC against Mycoplasma, in vitro agar dilution; details: Friis broth solidified with 0.9% agarose, 10^3 to 10^5 C.F.U., 6 days at 37°C; for MIC: Mesomycoplasma hyorhinis, ATCC23234, 144 h, read-out: MIC's against M. hyorhinis ATCC 23234
# M. suipneumoniae Str. 11 = experiment: MIC against Mycoplasma, in vitro agar dilution; details: Friis broth solidified with 0.9% agarose, 10^3 to 10^5 C.F.U., 6 days at 37°C; for MIC: Mesomycoplasma hyopneumoniae, STR.11, 144 h, read-out: MIC's against M. suipneumoniae Str. 11
# M. suipneumoniae MS 16 = experiment: MIC against Mycoplasma, in vitro agar dilution; details: Friis broth solidified with 0.9% agarose, 10^3 to 10^5 C.F.U., 6 days at 37°C; for MIC: Mesomycoplasma hyopneumoniae, MS16, 144 h, read-out: MIC's against M. suipneumoniae MS 16
# M. suipneumoniae UCD 1 = experiment: MIC against Mycoplasma, in vitro agar dilution; details: Friis broth solidified with 0.9% agarose, 10^3 to 10^5 C.F.U., 6 days at 37°C; for MIC: Mesomycoplasma hyopneumoniae, UCD1, 144 h, read-out: MIC's against M. suipneumoniae UCD 1
# [1] = test system: M. suipneumoniae PW/C/210; experiment: MIC against Mycoplasma, in vitro agar dilution; details: Friis broth solidified with 0.9% agarose, 10^3 to 10^5 C.F.U., 6 days at 37°C; for MIC: Mesomycoplasma hyopneumoniae, 144 h, read-out: MIC's against M. suipneumoniae PW/C/210
# M. gallisepticum S6 = experiment: MIC against Mycoplasma, in vitro agar dilution; details: Friis broth solidified with 0.9% agarose, 10^3 to 10^5 C.F.U., 6 days at 37°C; for MIC: Mycoplasmoides gallisepticum, S6, 144 h, read-out: MIC's against M. gallisepticum S6
# [2] = test system: M. suipneumoniae ATCC 25095; experiment: MIC against Mycoplasma, in vitro agar dilution; details: Friis broth solidified with 0.9% agarose, 10^3 to 10^5 C.F.U., 6 days at 37°C; for MIC: Mesomycoplasma hyopneumoniae, ATCC25095, 144 h, read-out: MIC's against M. suipneumoniae ATCC 25095
# [3] = test system: M. suipneumoniae NCTC 10110; experiment: MIC against Mycoplasma, in vitro agar dilution; details: Friis broth solidified with 0.9% agarose, 10^3 to 10^5 C.F.U., 6 days at 37°C; for MIC: Mesomycoplasma hyopneumoniae, NCTC10110, 144 h, read-out: MIC's against M. suipneumoniae NCTC 10110
# M. bovis NCTC 10131 = experiment: microbe, parasite or virus in culture; details: for MIC: NCTC10131, 144 h, read-out: MIC's against M. bovis NCTC 10131; for MIC's against M. bovis NCTC 10131: Friis broth solidified with 0.9% agarose, 10^3 to 10^5 C.F.U., 6 days at 37°C
# M. dispar NCTC 10125 = experiment: MIC against Mycoplasma, in vitro agar dilution; details: Friis broth solidified with 0.9% agarose, 10^3 to 10^5 C.F.U., 6 days at 37°C; for MIC: 144 h, read-out: MIC's against M. dispar NCTC 10125
# M. suipneumoniae JF 435 = experiment: MIC against Mycoplasma, in vitro agar dilution; details: Friis broth solidified with 0.9% agarose, 10^3 to 10^5 C.F.U., 6 days at 37°C; for MIC: Mesomycoplasma hyopneumoniae, JF435, 144 h, read-out: MIC's against M. suipneumoniae JF 435
# M. hyorhinis ATCC 25021 = experiment: MIC against Mycoplasma, in vitro agar dilution; details: Friis broth solidified with 0.9% agarose, 10^3 to 10^5 C.F.U., 6 days at 37°C; for MIC: Mesomycoplasma hyorhinis, ATCC25021, 144 h, read-out: MIC's against M. hyorhinis ATCC 25021
# M. suipneumoniae LABER = experiment: MIC against Mycoplasma, in vitro agar dilution; details: Friis broth solidified with 0.9% agarose, 10^3 to 10^5 C.F.U., 6 days at 37°C; for MIC: Mesomycoplasma hyopneumoniae, 144 h, read-out: MIC's against M. suipneumoniae LABER
# M. suipneumoniae TAM 6N = experiment: MIC against Mycoplasma, in vitro agar dilution; details: Friis broth solidified with 0.9% agarose, 10^3 to 10^5 C.F.U., 6 days at 37°C; for MIC: Mesomycoplasma hyopneumoniae, TAM6N, 144 h, read-out: MIC's against M. suipneumoniae TAM 6N
# [4] = test system: M. hyosynoviae ATCC 25591; experiment: MIC against Mycoplasma, in vitro agar dilution; details: Friis broth solidified with 0.9% agarose, 10^3 to 10^5 C.F.U., 6 days at 37°C; for MIC: 144 h, read-out: MIC's against M. hyosynoviae ATCC 25591
# M. pneumoniae ATCC 15492 = experiment: MIC against Mycoplasma, in vitro agar dilution; details: Friis broth solidified with 0.9% agarose, 10^3 to 10^5 C.F.U., 6 days at 37°C; for MIC: Mycoplasmoides pneumoniae, ATCC15492, 144 h, read-out: MIC's against M. pneumoniae ATCC 15492
# [5] = test system: M. bovigenitalium ATCC 14173; experiment: MIC against Mycoplasma, in vitro agar dilution; details: Friis broth solidified with 0.9% agarose, 10^3 to 10^5 C.F.U., 6 days at 37°C; for MIC: 144 h, read-out: MIC's against M. bovigenitalium ATCC 14173
# [6] = test system: M. suipneumoniae J2206/183^b; experiment: MIC against Mycoplasma, in vitro agar dilution; details: Friis broth solidified with 0.9% agarose, 10^3 to 10^5 C.F.U., 6 days at 37°C; for MIC: Mesomycoplasma hyopneumoniae, 144 h, read-out: MIC's against M. suipneumoniae J2206/183^b
compound,measurement,setting,value
"CC(CC1OCC(CC2OC2C(C)C(C)O)C(O)C1O)=C(C)C(=O)OCCCCCCCCC(=O)O [Example 7, Sodium 9-[4-(5S-(2S,3S-epoxy-5S-hydroxy-4S-methylhexyl) -3R,4R-dihdroxytetrahydroxyran-2S-yl)-2,3-dimethylbut-2(E)-enoyloxy]nonanoate]",MIC,M. suipneumoniae HK(2),> 10 µg/mL
same,MIC,M. suipneumoniae NB12,10 µg/mL
same,MIC,M. hyorhinis ATCC 23234,2.5 µg/mL
same,MIC,M. suipneumoniae Str. 11,5 µg/mL
same,MIC,M. suipneumoniae MS 16,5 µg/mL
same,MIC,M. suipneumoniae UCD 1,> 10 µg/mL
same,MIC,[1],5 µg/mL
same,MIC,M. gallisepticum S6,> 10 µg/mL
same,MIC,[2],10 µg/mL
same,MIC,[3],10 µg/mL
same,MIC,M. bovis NCTC 10131,0.05 µg/mL
same,MIC,M. dispar NCTC 10125,2.5 µg/mL
same,MIC,M. suipneumoniae JF 435,> 10 µg/mL
same,MIC,M. hyorhinis ATCC 25021,2.5 µg/mL
same,MIC,M. suipneumoniae LABER,5 µg/mL
same,MIC,M. suipneumoniae TAM 6N,> 10 µg/mL
same,MIC,[4],1 µg/mL
same,MIC,M. pneumoniae ATCC 15492,> 10 µg/mL
same,MIC,[5],0.5 µg/mL
same,MIC,[6],> 10 µg/mL
"CC(CC1OCC(CC2OC2C(C)C(C)O)C(O)C1O)=C(C)C(=O)OCc1ccc(Br)cc1 (stereo not shown) [Example 12, 4-Bromobenzyl 2-methylmonate A]",MIC,M. suipneumoniae HK(2),10 µg/mL
same,MIC,M. suipneumoniae NB12,5 µg/mL
same,MIC,M. hyorhinis ATCC 23234,2.5 µg/mL
same,MIC,M. suipneumoniae Str. 11,5 µg/mL
same,MIC,M. suipneumoniae MS 16,5 µg/mL
same,MIC,M. suipneumoniae UCD 1,10 µg/mL
same,MIC,[1],5 µg/mL
same,MIC,M. gallisepticum S6,> 10 µg/mL
same,MIC,[2],5 µg/mL
same,MIC,[3],10 µg/mL
same,MIC,M. bovis NCTC 10131,0.1 µg/mL
same,MIC,M. dispar NCTC 10125,2.5 µg/mL
same,MIC,M. suipneumoniae JF 435,10 µg/mL
same,MIC,M. hyorhinis ATCC 25021,2.5 µg/mL
same,MIC,M. suipneumoniae LABER,5 µg/mL
same,MIC,M. suipneumoniae TAM 6N,10 µg/mL
same,MIC,[4],2.5 µg/mL
same,MIC,M. pneumoniae ATCC 15492,10 µg/mL
same,MIC,[5],0.25 µg/mL
same,MIC,[6],10 µg/mL
8-Hydroxyoctyl 2-methylmonate A [Example 13],MIC's against M. suipneumoniae HK(2),M. suipneumoniae HK(2),1.0 µg/mL
same,MIC's against M. suipneumoniae NB12,M. suipneumoniae NB12,1.0 µg/mL
same,MIC's against M. hyorhinis ATCC 23234,M. hyorhinis ATCC 23234,0.5 µg/mL
same,MIC's against M. suipneumoniae Str. 11,M. suipneumoniae Str. 11,0.5 µg/mL
same,MIC's against M. suipneumoniae MS 16,M. suipneumoniae MS 16,0.5 µg/mL
same,MIC's against M. suipneumoniae UCD 1,M. suipneumoniae UCD 1,1.0 µg/mL
same,MIC's against M. suipneumoniae PW/C/210,[1],0.5 µg/mL
same,MIC's against M. gallisepticum S6,M. gallisepticum S6,5.0 µg/mL
same,MIC's against M. suipneumoniae ATCC 25095,[2],0.5 µg/mL
same,MIC's against M. suipneumoniae NCTC 10110,[3],1.0 µg/mL
same,MIC's against M. bovis NCTC 10131,M. bovis NCTC 10131,≤0.01 µg/mL
same,MIC's against M. dispar NCTC 10125,M. dispar NCTC 10125,0.1 µg/mL
same,MIC's against M. suipneumoniae JF 435,M. suipneumoniae JF 435,1.0 µg/mL
same,MIC's against M. hyorhinis ATCC 25021,M. hyorhinis ATCC 25021,0.5 µg/mL
same,MIC's against M. suipneumoniae LABER,M. suipneumoniae LABER,0.5 µg/mL
same,MIC's against M. suipneumoniae TAM 6N,M. suipneumoniae TAM 6N,1.0 µg/mL
same,MIC's against M. hyosynoviae ATCC 25591,[4],0.1 µg/mL
same,MIC's against M. pneumoniae ATCC 15492,M. pneumoniae ATCC 15492,1.0 µg/mL
same,MIC's against M. bovigenitalium ATCC 14173,[5],0.05 µg/mL
same,MIC's against M. suipneumoniae J2206/183^b,[6],1.0 µg/mL
"CC(CC1OCC(CC2OC2C(C)C(C)O)C(O)C1O)=C(C)C(=O)OCc1cc(C)no1 (stereo not shown) [Example 14, 3-Methyl-5-isoxazolylmethyl 2-methylmonate A]",MIC,M. suipneumoniae HK(2),0.5 µg/mL
same,MIC,M. suipneumoniae NB12,0.5 µg/mL
same,MIC,M. hyorhinis ATCC 23234,0.25 µg/mL
same,MIC,M. suipneumoniae Str. 11,0.25 µg/mL
same,MIC,M. suipneumoniae MS 16,0.25 µg/mL
same,MIC,M. suipneumoniae UCD 1,0.5 µg/mL
same,MIC,[1],0.25 µg/mL
same,MIC,M. gallisepticum S6,1 µg/mL
same,MIC,[2],0.5 µg/mL
same,MIC,[3],0.5 µg/mL
same,MIC,M. bovis NCTC 10131,≤ 0.01 µg/mL
same,MIC,M. dispar NCTC 10125,0.1 µg/mL
same,MIC,M. suipneumoniae JF 435,0.5 µg/mL
same,MIC,M. hyorhinis ATCC 25021,0.25 µg/mL
same,MIC,M. suipneumoniae LABER,0.25 µg/mL
same,MIC,M. suipneumoniae TAM 6N,1 µg/mL
same,MIC,[4],0.1 µg/mL
same,MIC,M. pneumoniae ATCC 15492,1 µg/mL
same,MIC,[5],0.025 µg/mL
same,MIC,[6],0.5 µg/mL
4-(Methylthio)benzyl 2-methylmonate [Example 11],MIC's against M. suipneumoniae HK(2),M. suipneumoniae HK(2),2.5 µg/mL
same,MIC's against M. suipneumoniae NB12,M. suipneumoniae NB12,1.0 µg/mL
same,MIC's against M. hyorhinis ATCC 23234,M. hyorhinis ATCC 23234,1.0 µg/mL
same,MIC's against M. suipneumoniae Str. 11,M. suipneumoniae Str. 11,1.0 µg/mL
same,MIC's against M. suipneumoniae MS 16,M. suipneumoniae MS 16,1.0 µg/mL
same,MIC's against M. suipneumoniae UCD 1,M. suipneumoniae UCD 1,2.5 µg/mL
same,MIC's against M. suipneumoniae PW/C/210,[1],1.0 µg/mL
same,MIC's against M. gallisepticum S6,M. gallisepticum S6,10 µg/mL
same,MIC's against M. suipneumoniae ATCC 25095,[2],2.5 µg/mL
same,MIC's against M. suipneumoniae NCTC 10110,[3],2.5 µg/mL
same,MIC's against M. bovis NCTC 10131,M. bovis NCTC 10131,0.05 µg/mL
same,MIC's against M. dispar NCTC 10125,M. dispar NCTC 10125,0.5 µg/mL
same,MIC's against M. suipneumoniae JF 435,M. suipneumoniae JF 435,2.5 µg/mL
same,MIC's against M. hyorhinis ATCC 25021,M. hyorhinis ATCC 25021,0.5 µg/mL
same,MIC's against M. suipneumoniae LABER,M. suipneumoniae LABER,1.0 µg/mL
same,MIC's against M. suipneumoniae TAM 6N,M. suipneumoniae TAM 6N,2.5 µg/mL
same,MIC's against M. hyosynoviae ATCC 25591,[4],0.25 µg/mL
same,MIC's against M. pneumoniae ATCC 15492,M. pneumoniae ATCC 15492,5.0 µg/mL
same,MIC's against M. bovigenitalium ATCC 14173,[5],0.1 µg/mL
same,MIC's against M. suipneumoniae J2206/183^b,[6],2.5 µg/mL
